# PubChem BioAssay (NCI)
#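 Tested at 5 concentrations; 48 h exposure; 96-well plates; endpoints linearly interpolated, else capped at highest concentration. The concentration for 50% growth inhibition is given as GI50. TGI marks complete inhibition of growth.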
# Key:
# Test in all cases: inhibition of tumour cell growth, NCI panel, 48 h
# UACC-257 melanoma = system: UACC-257 melanoma
# K-562 leukemia = system: K-562 leukemia
# UO-31 renal = system: UO-31 renal
# SF-539 CNS = system: SF-539 CNS
# SW-620 colon = system: SW-620 colon
# U251 CNS = system: U251 CNS
# MDA-MB-435 = system: MDA-MB-435
# MDA-MB-231 breast = system: MDA-MB-231 breast
# OVCAR-4 ovarian = system: OVCAR-4 ovarian
# SF-295 CNS = system: SF-295 CNS
# HOP-92 NSCLC = system: HOP-92 NSCLC
# IGROV1 ovarian = system: IGROV1 ovarian
# RPMI-8226 leukemia = system: RPMI-8226 leukemia
# COLO 205 colon = system: COLO 205 colon
# OVCAR-8 ovarian = system: OVCAR-8 ovarian
# MALME-3M melanoma = system: MALME-3M melanoma
# TK-10 renal = system: TK-10 renal
# HOP-62 NSCLC = system: HOP-62 NSCLC
# UACC-62 melanoma = system: UACC-62 melanoma
# OVCAR-3 ovarian = system: OVCAR-3 ovarian
# BT-549 breast = system: BT-549 breast
# NCI/ADR-RES ovarian = system: NCI/ADR-RES ovarian
# HS 578T breast = system: HS 578T breast
# NCI-H460 lung = system: NCI-H460 lung
# SK-MEL-2 melanoma = system: SK-MEL-2 melanoma
# MOLT-4 leukemia = system: MOLT-4 leukemia
# HCT-15 colon = system: HCT-15 colon
# SN12C renal = system: SN12C renal
# HL-60(TB) leukemia = system: HL-60(TB) leukemia
compound,measurement,setting,value
O=C1/C(=C/c2cccc(Br)c2)COc2ccc(O)c(O)c21,GI50,UACC-257 melanoma,1540 nM
same,TGI,UACC-257 melanoma,3030 nM
same,GI50,K-562 leukemia,387 nM
same,TGI,K-562 leukemia,20700 nM
same,GI50,UO-31 renal,958 nM
same,TGI,UO-31 renal,2140 nM
same,GI50,SF-539 CNS,1580 nM
same,TGI,SF-539 CNS,3450 nM
same,GI50,SW-620 colon,1060 nM
same,TGI,SW-620 colon,3520 nM
same,GI50,U251 CNS,1100 nM
same,TGI,U251 CNS,2290 nM
same,GI50,MDA-MB-435,1230 nM
same,TGI,MDA-MB-435,2760 nM
same,GI50,MDA-MB-231 breast,1400 nM
same,TGI,MDA-MB-231 breast,3350 nM
same,GI50,OVCAR-4 ovarian,1510 nM
same,TGI,OVCAR-4 ovarian,2850 nM
same,GI50,SF-295 CNS,2750 nM
same,TGI,SF-295 CNS,7390 nM
same,GI50,HOP-92 NSCLC,1890 nM
same,TGI,HOP-92 NSCLC,7210 nM
same,GI50,IGROV1 ovarian,996 nM
same,TGI,IGROV1 ovarian,2680 nM
same,GI50,RPMI-8226 leukemia,248 nM
same,TGI,RPMI-8226 leukemia,649 nM
same,GI50,COLO 205 colon,1540 nM
same,TGI,COLO 205 colon,3000 nM
same,GI50,OVCAR-8 ovarian,1060 nM
same,TGI,OVCAR-8 ovarian,2860 nM
same,GI50,MALME-3M melanoma,1490 nM
same,TGI,MALME-3M melanoma,3060 nM
same,GI50,TK-10 renal,1700 nM
same,TGI,TK-10 renal,3100 nM
same,GI50,HOP-62 NSCLC,1840 nM
same,TGI,HOP-62 NSCLC,3740 nM
same,GI50,UACC-62 melanoma,1640 nM
same,TGI,UACC-62 melanoma,3140 nM
same,GI50,OVCAR-3 ovarian,675 nM
same,TGI,OVCAR-3 ovarian,2070 nM
same,GI50,BT-549 breast,2030 nM
same,TGI,BT-549 breast,4350 nM
same,GI50,NCI/ADR-RES ovarian,2030 nM
same,TGI,NCI/ADR-RES ovarian,10300 nM
same,GI50,HS 578T breast,2280 nM
same,TGI,HS 578T breast,7530 nM
same,GI50,NCI-H460 lung,2140 nM
same,TGI,NCI-H460 lung,5420 nM
same,GI50,SK-MEL-2 melanoma,1530 nM
same,TGI,SK-MEL-2 melanoma,3110 nM
same,GI50,MOLT-4 leukemia,927 nM
same,TGI,MOLT-4 leukemia,10800 nM
same,GI50,HCT-15 colon,866 nM
same,TGI,HCT-15 colon,3880 nM
same,GI50,SN12C renal,1200 nM
same,TGI,SN12C renal,3040 nM
same,GI50,HL-60(TB) leukemia,969 nM
